Assay results published in patent publication US8138205B2, “Heteroarylalkoxy-substituted quinolone inhibitors of PDE4” (Kalypsys, Inc., priority 2006, dated 2012).

Experiments:
Rabbits = assay: Lacrimal Gland Inflammation-Induced Dry Eye in Rabbits (corneal staining, tear breakup time); assay type: in vivo; conditions: topical ocular BID, rabbit ConA dry eye
Text: A more detailed description of the assay used herein may be found in Naglehout, T J et al. 2005, “Preservation of Tear Film Integrity and Inhibition of Corneal Injury by Dexamethasone in a Rabbit Model of Lacrimal Gland Inflammation-Induced Dry Eye,” J. Ocular Pharm. Ther., 21:2. 139-148, the disclosure of which is hereby incorporated by reference as if written herein in its entirety.
Rabbits (n=4/group) were randomized into treatment groups and dosed topically BID with maxidex vehicle or test drug beginning one day prior to initiation of dry eye. Each rabbit received bilateral lacrimal gland injections of saline or ConA (300 μg/30 μl) and topical ocular dosing was continued BID throughout the study.
Desiccation was initiated 1-2 hours following lacrimal gland injection by placing conscious rabbits in the environmental chamber (10-15% humidity/72° F.). Following 72 consecutive hours of exposure to this dry environment, the animals were anesthetized and sutures were placed in each upper and lower eyelid and lifted to form a corneal/conjunctival cup. Methylene blue dye (1 mL, 1% in dH2O) was added to the cup for three minutes and the excess removed by washing with 200 mL BSS®. The contralateral eye was then stained using the same procedure. Rabbits were euthanized immediately following the staining procedure and the eyes were excised. The corneas were isolated with a trephine and the 9.5-mm punch of the cornea was placed in 2 mL acetone/saturated sodium sulfate (7:3, vol./vol.). Absorbance of the extracted dye was determined at 660 nm.
TBUT was quantified in a separate group of treated animals. TBUT was determined by instilling 5 μL sodium fluorescein into the cul de sac and manually blinking the lids to distribute the fluorescein within the tear film. Under slit lamp observation, the eye was held open and the time whereby one or more black spots or streaks appeared in the precorneal tear film was recorded. The rabbits were euthanized 3 days following ConA injection.

Solubility Protocol = assay type: physicochemical; conditions: aqueous buffer, thermodynamic from solid; pH 7.4, 0.1 M sodium phosphate buffer
Procedure: About 5 mg of a compound was mixed with 500 μL of pH 7.4, 0.1 M sodium phosphate buffer. The mixture was adjusted to the original pH of 7.4 and then mixed overnight or longer via rotary mixing. The sample was checked for pH and then filtered through a 0.45 μm filter. If the pH drifted away, the sample was adjusted to its original pH and mixed for at least 15 minutes before filtration. The filtrate was analyzed using HPLC.

Stability Protocol = assay type: physicochemical; conditions: pH 7.4 sodium phosphate buffer, preliminary shelf life (T90) estimated from stressed samples
Procedure: About 3 mg of a compound was dissolved in 3 mL of acetonitrile/water mixture (50/50). 100 μL of the stock solution was added to 20 mL each of 0.025 M pH 5.0 sodium acetate buffer (A5.0), 0.025 M pH 5.0 citrate buffer (C5.0) and 0.025 M pH 7.4 sodium phosphate buffer (P7.4). A two mL aliquot of each solution was kept in a glass vial equipped a cap lined with Teflon. Two vials containing the solution were stored at 4° C. or −20° C. as control. Other aliquots were stressed at RT, 45° C. or 75° C. for specified time check points, e.g. 1 day, 1 w, 2 w, 4 w, 8 w,12 w. The stressed samples in duplicate were assayed against the control using HPLC. The results were reported in % degradation. Preliminary shelf life (T90) was estimated assuming the rate of chemical degradation is double when the temperature is up 10° C.

Row | Compound | Activity at Percent Concentration Tested (Rabbits; 1 × 10^−2 percent) | Activity at Percent Concentration Tested (Rabbits; 1 × 10^−4 percent) | Activity at Percent Concentration Tested (Rabbits; 1 × 10^−6 percent) | solubility (Solubility Protocol) | Stability, pH 7.4 (Stability Protocol) | Activity at Percent Concentration Tested (Rabbits; 1 percent) | Activity at Percent Concentration Tested (Rabbits; 1 × 10^−1 percent)
1 | COc1ccc2c(Nc3c(C)cncc3C)cc(=O)[nH]c2c1OC1CCCC1 [Example 5, 8-(Cyclopentyloxy)-4-(3,5-dimethylpyridin-4-ylamino)-7-methoxyquinolin-2(1H)-one] | Inactive | Inactive | Inactive | ≥ 1000 µg/mL | + (+ indicates ≧1 Year) | – | –
2 | COc1ccc2c(Nc3c(Cl)cncc3Cl)cc(=O)[nH]c2c1OC1CCCC1 [Example 1, 8-(Cyclopentyloxy)-4-(3,5-dichloropyridin-4-ylamino)-7-methoxyquinolin-2(1H)-one] | Inactive | – | – | ≥ 1000 µg/mL | + (+ indicates ≧1 Year) | Inactive | Inactive
3 | COc1ccc2c(Nc3c(C)cncc3C)cc(=O)[nH]c2c1OCC1CC1 [Example 8, 8-(Cyclopropylmethoxy)-4-(3,5-dimethylpyridin-4-ylamino)-7-methoxyquinolin-2(1H)-one] | Inactive | Inactive | Inactive | – | + (+ indicates ≧1 Year) | – | –
